Laboratory results: ChEMBL document CHEMBL5030533, “Mechanistic Investigation of Site-specific DNA Methylating Agents Targeting Breast Cancer Cells” (J Med Chem, 2021)
Calls of active or inactive are those of the source. The calls are words filed in the database; no cut-off is given here.

Columns and labels:
Estrogen receptor = biological target: T1, Estrogen receptor (Homo sapiens, UniProt P03372); test: Binding affinity of ERalpha LBD (unknown origin) incubated for 2 hrs by LanthaScreen TR-FRET assay
T1 sequence (P03372 whole entry): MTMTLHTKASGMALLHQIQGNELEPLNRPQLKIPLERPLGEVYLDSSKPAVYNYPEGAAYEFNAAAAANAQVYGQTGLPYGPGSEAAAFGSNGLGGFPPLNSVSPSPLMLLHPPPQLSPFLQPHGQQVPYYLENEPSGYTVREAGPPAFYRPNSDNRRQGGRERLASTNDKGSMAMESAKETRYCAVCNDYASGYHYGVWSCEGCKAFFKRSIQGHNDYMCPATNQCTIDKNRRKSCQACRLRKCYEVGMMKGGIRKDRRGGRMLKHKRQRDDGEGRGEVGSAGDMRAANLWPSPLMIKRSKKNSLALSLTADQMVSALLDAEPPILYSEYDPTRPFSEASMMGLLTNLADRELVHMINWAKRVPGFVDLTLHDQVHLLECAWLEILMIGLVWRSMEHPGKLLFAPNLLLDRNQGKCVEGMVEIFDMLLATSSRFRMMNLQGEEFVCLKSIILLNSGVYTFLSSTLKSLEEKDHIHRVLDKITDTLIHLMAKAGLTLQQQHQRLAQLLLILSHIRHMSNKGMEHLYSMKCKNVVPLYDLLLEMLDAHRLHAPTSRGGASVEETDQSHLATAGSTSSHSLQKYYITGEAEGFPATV

[1] = biological target: T2, Estrogen receptor (Homo sapiens) (UniProt P03372); test: Induction of ERalpha nuclear translocation in human MCF7 cells assessed as increase in IGFBP4 mRNA expression at 0.1 to 5 nM after 24 hrs by RT-qPCR analysis; assay type: cell-based; details: dose 0.1-5 nM
T2 sequence (whole entry): T1 sequence (P03372 whole entry)

[2] = biological target: T2, Estrogen receptor (Homo sapiens); test: Induction of ERalpha nuclear translocation in human MCF7 cells assessed as increase in TFF1 mRNA expression at 0.1 to 5 nM after 24 hrs by RT-qPCR analysis; assay type: cell-based; details: dose 0.1-5 nM
[3] = biological target: T2, Estrogen receptor (Homo sapiens); test: Induction of ERalpha nuclear translocation in human MCF7 cells assessed as increase in RasGRP1 mRNA expression at 0.1 to 5 nM after 24 hrs by RT-qPCR analysis; assay type: cell-based; details: dose 0.1-5 nM
[4] = biological target: T2, Estrogen receptor (Homo sapiens); test: Induction of ERalpha nuclear translocation in human MCF7 cells assessed as increase in LRP2 mRNA expression at 0.1 to 5 nM after 24 hrs by RT-qPCR analysis; assay type: cell-based; details: dose 0.1-5 nM
[5] = biological target: T2, Estrogen receptor (Homo sapiens); test: Induction of ERalpha nuclear translocation in human MCF7 cells assessed as increase in RGNEF mRNA expression at 0.1 to 5 nM after 24 hrs by RT-qPCR analysis; assay type: cell-based; details: dose 0.1-5 nM
[6] = biological target: T2, Estrogen receptor (Homo sapiens); test: Induction of ERalpha nuclear translocation in human MCF7 cells assessed as increase in AGR2 mRNA expression at 0.1 to 5 nM after 24 hrs by RT-qPCR analysis; assay type: cell-based; details: dose 0.1-5 nM
[7] = biological target: T2, Estrogen receptor (Homo sapiens); test: Induction of ERalpha nuclear translocation in human MCF7 cells assessed as increase in SLFN5 mRNA expression at 0.1 to 5 nM after 24 hrs by RT-qPCR analysis; assay type: cell-based; details: dose 0.1-5 nM
Calf thymus DNA [8] = test: Displacement of ethidium bromide from calf thymus DNA assessed as relative binding by measuring molar equivalents by spectrofluorometric assay; assay type: nucleic-acid assay; details: Bos taurus
Calf thymus DNA [9] = test: Binding affinity to calf thymus DNA assessed as 3-MeA adduct formation at 50 uM after 24 hrs by RP-HPLC analysis; assay type: nucleic-acid assay; details: Bos taurus
Calf thymus DNA [10] = test: Binding affinity to calf thymus DNA assessed as 3-MeA adduct formation at 100 uM after 24 hrs by RP-HPLC analysis; assay type: nucleic-acid assay; details: Bos taurus
Calf thymus DNA [11] = test: Binding affinity to calf thymus DNA assessed as 7-MeG adduct formation at 25 uM after 24 hrs by RP-HPLC analysis; assay type: nucleic-acid assay; details: Bos taurus
Calf thymus DNA [12] = test: Binding affinity to calf thymus DNA assessed as 7-MeG adduct formation at 50 uM after 24 hrs by RP-HPLC analysis; assay type: nucleic-acid assay; details: Bos taurus
Calf thymus DNA [13] = test: Binding affinity to calf thymus DNA assessed as 7-MeG adduct formation at 100 uM after 24 hrs by RP-HPLC analysis; assay type: nucleic-acid assay; details: Bos taurus
Calf thymus DNA [14] = test: Binding affinity to calf thymus DNA assessed as 3-MeA adduct formation at 25 uM after 24 hrs by RP-HPLC analysis relative to control; assay type: nucleic-acid assay; details: Bos taurus
Calf thymus DNA [15] = test: Binding affinity to calf thymus DNA assessed as 3-MeA adduct formation at 50 uM after 24 hrs by RP-HPLC analysis relative to control; assay type: nucleic-acid assay; details: Bos taurus
Calf thymus DNA [16] = test: Binding affinity to calf thymus DNA assessed as 3-MeA adduct formation at 100 uM after 24 hrs by RP-HPLC analysis relative to control; assay type: nucleic-acid assay; details: Bos taurus
Calf thymus DNA [17] = test: Binding affinity to calf thymus DNA assessed as 3-MeA adduct formation at 100 uM after 24 hrs in presence of netropsin by RP-HPLC analysis relative to control; assay type: nucleic-acid assay; details: Bos taurus
MCF7 [18] = test: Cytotoxicity against human MCF7 cells measured after 16 hrs by MTT assay; assay type: functional, cell-based; details: MCF7, 16 h
[19] = biological target: T2, Estrogen receptor (Homo sapiens); test: Induction of ERalpha nuclear translocation in human MCF7 cells at 15 nM after 5 hrs by immunofluorescence assay; assay type: cell-based
Calf thymus DNA [20] = test: Binding affinity to calf thymus DNA assessed as 3-MeA adduct formation at 100 uM for 24 hrs in presence of netropsin by RP-HPLC analysis; assay type: nucleic-acid assay; details: Bos taurus
Calf thymus DNA [21] = test: Binding affinity to calf thymus DNA assessed as 7-MeG adduct formation at 100 uM after 24 hrs in presence of netropsin by RP-HPLC analysis; assay type: nucleic-acid assay; details: Bos taurus
Calf thymus DNA [22] = test: Binding affinity to calf thymus DNA assessed as 3-MeA adduct formation at 25 uM after 24 hrs by RP-HPLC analysis; assay type: nucleic-acid assay; details: Bos taurus
Calf thymus DNA [23] = test: Binding affinity to calf thymus DNA assessed as 3-MeA adduct formation at 5000 uM after 24 hrs by RP-HPLC analysis; assay type: nucleic-acid assay; details: Bos taurus
Calf thymus DNA [24] = test: Binding affinity to calf thymus DNA assessed as 3-MeA adduct formation at 5000 uM after 24 hrs by RP-HPLC analysis relative to control; assay type: nucleic-acid assay; details: Bos taurus
Calf thymus DNA [25] = test: Binding affinity to calf thymus DNA assessed as 3-MeA adduct formation at 5000 uM after 24 hrs in presence of netropsin by RP-HPLC analysis relative to control; assay type: nucleic-acid assay; details: Bos taurus
Calf thymus DNA [26] = test: Binding affinity to calf thymus DNA assessed as 3-MeA adduct formation at 5000 uM after 24 hrs in presence of netropsin by RP-HPLC analysis; assay type: nucleic-acid assay; details: Bos taurus
MCF7 [27] = test: Cytotoxicity against ER positive human MCF7 cells at 100 uM incubated for 24 hrs in presence of estradiol by MTT assay; assay type: functional, cell-based
MCF7 [28] = test: Cytotoxicity against ER positive human MCF7 cells incubated for 24 hrs in presence of estradiol by MTT assay; assay type: functional, cell-based; details: MCF7, 24 h
MDA-MB-231 = test: Cytotoxicity against ER negative human MDA-MB-231 cells incubated for 24 hrs in presence of estradiol by MTT assay; assay type: functional, cell-based; details: MDA-MB-231, 24 h

Row | SMILES | Activity [1] | Activity [2] | Activity [3] | Activity [4] | Activity [5] | Activity [6] | Activity [7] | Activity (Calf thymus DNA [8]) [Mequiv] | Activity (Calf thymus DNA [9]) [µmol] | Activity (Calf thymus DNA [11]) [µmol] | Activity (Calf thymus DNA [12]) [µmol] | Activity (Calf thymus DNA [13]) [µmol] | Activity (Calf thymus DNA [14]) [%] | Activity (Calf thymus DNA [15]) [%] | Activity (Calf thymus DNA [16]) [%] | Activity (Calf thymus DNA [17]) [%] | EC50 (MCF7 [18]) [µM] | Activity (Calf thymus DNA [20]) [µmol] | Activity (Calf thymus DNA [21]) [µmol] | Activity (Calf thymus DNA [22]) [µmol] | other results
1 | Cn1cc(NC(=O)c2cc(NC(=O)CCS(C)(=O)=O)cn2C)cc1C(=O)NCCC(=O)NCCCCCC[C@@H]1Cc2cc(O)ccc2[C@H]2CC[C@]3(C)[C@@H](O)CC[C@H]3[C@H]12 | Active | Active | Active | inactive | Active | Active | Active | 2.54 |  |  |  |  |  |  |  |  |  |  |  |  | IC50 (Estrogen receptor): 0.00148 µM
2 | COS(=O)(=O)CCC(=O)Nc1cc(C(=O)Nc2cc(C(=O)NCC(=O)NCCCCCC[C@@H]3Cc4cc(O)ccc4[C@H]4CC[C@]5(C)[C@@H](O)CC[C@H]5[C@H]34)n(C)c2)n(C)c1 |  |  |  |  |  |  |  |  | 1760 | 194 | 404 | 404 | 89 | 86 | 83 | 91 | 142 | 180 | 482 | 1620 | Activity (Calf thymus DNA [10]): 1920 µmol; Activity [19]: Active
3 | Cn1cc(NC(=O)c2cc(NC(=O)CCS(C)(=O)=O)cn2C)cc1C(=O)NCCCC(=O)NCCCCCC[C@@H]1Cc2cc(O)ccc2[C@H]2CC[C@]3(C)[C@@H](O)CC[C@H]3[C@H]12 | Active | Active | Active | Active | Active | Active | Active | 4.43 |  |  |  |  |  |  |  |  | 146 |  |  |  | 
4 | COS(C)(=O)=O |  |  |  |  |  |  |  |  |  |  |  |  |  |  |  |  |  |  |  |  | Activity (Calf thymus DNA [23]): 1800 µmol; Activity (Calf thymus DNA [24]): 9%; Activity (Calf thymus DNA [25]): 31%; Activity (Calf thymus DNA [26]): 1240 µmol
5 | COS(=O)(=O)CCC(=O)Nc1cc(C(=O)Nc2cc(C(=O)NCCCC(=O)NCCCCCC[C@@H]3Cc4cc(O)ccc4[C@H]4CC[C@]5(C)[C@@H](O)CC[C@H]5[C@H]34)n(C)c2)n(C)c1 |  |  |  |  |  |  |  |  | 922 | 147 | 204 | 318 | 83 | 82 | 79 | 86 | 89.5 | 173 | 420 | 699 | Activity (Calf thymus DNA [10]): 1210 µmol
6 | Cn1cc(NC(=O)c2cc(NC(=O)CCS(C)(=O)=O)cn2C)cc1C(=O)NCC(=O)NCCCCCC[C@@H]1Cc2cc(O)ccc2[C@H]2CC[C@]3(C)[C@@H](O)CC[C@H]3[C@H]12 | Active | Active | Active | inactive | Active | Active | Active | 4.35 |  |  |  |  |  |  |  |  | 122 |  |  |  | IC50 (Estrogen receptor): 0.00099 µM
7 | CCCNC(=O)c1cc(NC(=O)c2cc(NC(=O)CCS(=O)(=O)OC)cn2C)cn1C |  |  |  |  |  |  |  |  | 8230 | 185 | 399 | 774 | 96 | 95 | 95 | 95 | 85 |  | 714 | 4600 | Activity (MCF7 [27]): Active
8 | COS(=O)(=O)CCC(=O)Nc1cc(C(=O)Nc2cc(C(=O)NCCC(=O)NCCCCCC[C@@H]3Cc4cc(O)ccc4[C@H]4CC[C@]5(C)[C@@H](O)CC[C@H]5[C@H]34)n(C)c2)n(C)c1 |  |  |  |  |  |  |  |  |  | 93 | 253 | 495 | 99 | 98 | 97 | 95 | 39.4 | 769 | 409 | 6520 | Activity (MCF7 [27]): inactive; EC50 (MCF7 [28]): 50.7 µM; EC50 (MDA-MB-231): 160 µM
